Holding throughout (experiment): NCI anticancer screen, dose series, 48 h
In assay [1] the test system is BT-549 breast.
The test system of assay [2] is CAKI-1 renal.
In assay [3] the test system is CCRF-CEM leukemia.
The subject of assay [4] is COLO 205 colon.
For assay [5], the system named is HOP-62 NSCLC.
Assay [6] concerns HOP-92 NSCLC.
Assay [7] concerns IGROV1 ovarian.
Assay [8] has as its system M14 melanoma.
Assay [9] has as its system MDA-MB-435.
Assay [10] relates to MDA-N.
Assay [11] concerns MOLT-4 leukemia.
The subject of assay [12] is NCI-H522 lung.
Assay [13] deals with OVCAR-4 ovarian.
Assay [14] deals with OVCAR-5 ovarian.
For assay [15], the system named is RPMI-8226 leukemia.
For assay [16], the system named is T-47D breast.
Assay [17] concerns TK-10 renal.
Assay [18] has as its system U251 CNS.
Assay [19] deals with UACC-257 melanoma.

SMILES strings stand for the structures.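 Step 1: Grow cells in 96-well plates. Step 2: Expose to compound for 48 hours at 5 concentrations. Step 3: Interpolate endpoints linearly; if unreached, use highest concentration. TGI: concentration producing complete growth inhibition.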 A value given as a limit tells only on which side of the number the result lay.

For the compound `C/C=C(/C)C(=O)O[C@H]1[C@H]2[C@@H]([C@@H](OC(C)=O)[C@H](C)C(=O)[C@@]34C[C@@H](C)C(=O)[C@]3(/C=C(\C)[C@H]1OC(C)=O)O4)C2(C)C`, the TGI turned out to be 5.84 µM in [1]; 10 µM in [2]; 3.35 µM in [3]; 5.32 µM in [4]; 12 µM in assay [5]; 7.73 µM in assay [6]. For the same compound, the TGI in assay [7] was found to be 9.96 µM; in [8] it was 5.22 µM; in assay [9], 6.6 µM; in [10], 4.94 µM; in assay [11] it was 6.46 µM; in assay [12] it was 6.29 µM. Moreover, the TGI in assay [13] is 14.2 µM; in assay [14], 7.77 µM; in assay [15], 9.94 µM; in [16] it was 5.74 µM; in assay [17] it was 7.61 µM; in assay [18], greater than 20 µM. This compound yielded a TGI in assay [19] of 10.9 µM.

With `CC(=O)Nc1cccc(N2C(=O)/C(=C\c3cccc(Oc4ccccc4)c3)S(=O)(=O)C2c2ccccc2)c1` (stereo not drawn), the TGI in [1], in [2], in assay [3], in assay [4], in assay [5] and in assay [6] was greater than 100 µM in each case. Also, the TGI is greater than 100 µM in assay [7]; greater than 100 µM in [8]; greater than 100 µM in assay [9]; greater than 100 µM in assay [10]; 62.6 µM in assay [11]; greater than 100 µM in assay [12]. Further, the TGI in assay [13], in assay [14], in assay [15], in assay [16], in assay [17] and in assay [18] was greater than 100 µM throughout. In addition, in assay [19], the TGI is greater than 100 µM.

As for `COC(=O)c1ccccc1CC1Cc2cc3c(cc2C1=O)CCC3` (stereo not drawn), the TGI in assay [1] is 31.8 µM; in [2], greater than 100 µM; in assay [3], 62.7 µM; in [4] it was 28.4 µM; in assay [5], greater than 94.4 µM; in assay [6], 42.4 µM. For the same compound, the TGI in assay [7] is greater than 100 µM; in [8], 44.5 µM; in assay [9], 10.7 µM; in assay [10] it was 10.7 µM; in assay [11], 33.9 µM; in assay [12], 27.1 µM. Besides, the TGI in assay [13] is greater than 93.3 µM; in assay [14] it was greater than 90.8 µM; in [15], 54.5 µM; in assay [16], 69.9 µM; in assay [17], 79.7 µM; in assay [18], 42.3 µM. This compound also came in with a TGI in assay [19] of 71.5 µM.

Consider `O=C1OC(C2Cc3ccc4c(c3C2=O)CCC4)c2ccccc21` (stereo not drawn), for which the TGI in [1] is greater than 100 µM; in assay [2], greater than 100 µM; in assay [3] it was greater than 100 µM; in assay [4] it was 45.8 µM; in assay [5] it was greater than 100 µM; in [6], greater than 100 µM. Further, the TGI in assay [7], in assay [8], in [9], in assay [10], in assay [11] and in [12] was greater than 100 µM each time. Also, the TGI in assay [13] was greater than 100 µM; in [14], greater than 100 µM; in assay [15] it was 85.1 µM; in assay [16], greater than 100 µM; in [17], greater than 100 µM; in [18] it was greater than 100 µM. Besides, the TGI in [19] was greater than 100 µM.

Take `C/C=C/C=C\C=C/C(O)C(C)C(CCC(C)C1OC(=O)C=CC1C)OP(=O)(O)O` (stereo not drawn): the TGI in assay [1] stood at 0.591 µM; in [2], 0.314 µM; in assay [3], 0.625 µM; in [4], 0.788 µM; in assay [5] it was 0.786 µM; in [6] it was 0.881 µM. The TGI was found to be 0.694 µM in assay [7]; 0.685 µM in assay [8]; 0.773 µM in assay [9]; 1.32 µM in assay [10]; 0.613 µM in assay [11]; 2.89 µM in [12]. Moreover, the TGI was determined as 2.86 µM in [13]; 0.574 µM in assay [14]; 0.491 µM in [15]; 1.46 µM in [16]; 1.91 µM in assay [17]; 2.5 µM in assay [18]. This compound also registered a TGI in assay [19] of 3.02 µM.

For the compound `C=C1C(=O)O[C@@H]2/C=C(\C)CC/C=C(\C)CC[C@@]12O`, the TGI in [1] worked out at 7.81 µM; in assay [2] it was 2.79 µM; in assay [3], 0.607 µM; in assay [4], 4.3 µM; in assay [5] it was 15.6 µM; in [6], 3.63 µM. The TGI in assay [7] is 7.63 µM; in assay [8], 10.5 µM; in assay [9], 7.29 µM; in assay [10], 6.42 µM; in assay [11] it was 6.15 µM; in assay [12] it was 1.38 µM. Further, the TGI in [13] worked out at 4.86 µM; in assay [14], 25.8 µM; in assay [15], 6.43 µM; in assay [16] it was 3.33 µM; in assay [17] it was 3.42 µM; in assay [18], 19.7 µM. For the same compound, in [19], the TGI was 31.7 µM.

For the compound `COc1ccc2c(=O)cc(-c3ccc(OC)c(OC)c3OC)oc2c1`, the TGI in assay [1] was greater than 100 µM; in assay [2], greater than 100 µM; in [3] it was greater than 31.6 µM; in assay [4], greater than 100 µM; in assay [5], greater than 100 µM; in assay [6] it was greater than 100 µM. The TGI in assay [7], in assay [8], in assay [9], in [10], in assay [11] and in assay [12] was greater than 100 µM in each case. In addition, the TGI was greater than 100 µM in assay [13]; greater than 100 µM in assay [14]; 53.9 µM in assay [15]; greater than 100 µM in assay [16]; greater than 100 µM in [17]; greater than 100 µM in assay [18]. In [19], the TGI is greater than 100 µM.

These data come from PubChem BioAssay (NCI).
